In patent US9593127B2, “Heterocyclylalkyne derivatives and their use as modulators of mGluR5 receptors” (RECORDATI IRELAND LTD., priority 2014, dated 2017):

Tests used:
[1] = biological target: T1, human mGlu5 receptor (CHO T-REx h-mGluR5 cells) (Homo sapiens (Human), UniProt P41594); assay: Calcium fluorescence measurement, antagonist potency against EC80 of quisqualate; assay type: cell-based; settings: agonist quisqualate at EC80; read-out: h.c. mgluR5 Calcium IC50
Excerpt: (§1) Cell lines stably transfected were generated using inducible expression vectors encoding human mGlu5 receptor using the Tetracycline-Regulated Expression system (T-REx™ system, Invitrogen, Life Technologies). Human mGluR5 open reading frame (ORF), comprehensive of the stop codon, were cloned into the pcDNA4/TO/myc-His™ A vector, carrying the TetO2 sequences. The insertion site was HindIII-PstI for mGluR5 receptors. The obtained constructs were then transfected into the T-REx CHO™ cell line using the FuGENE protocol (Roche); the CHO T-REx™ cell line stably expresses the Tet repressor (from the pcDNA6/TR plasmid) under the selection of blasticidin, 10 μg/ml. Stable clones were obtained selecting with zeocine 1 mg/ml and maintaining in ULTRA CHO medium (LONZA) supplemented with dialyzed FBS, zeocin, blasticidine, at 37° C., in an atmosphere of 5% CO2. The expression of h-mGluR5 receptors was de-repressed with 1 μg/ml tetracycline for 18 h before binding experimentation, while the expression of h-mGluR5 receptors was de-repressed respectively with 3 ng/ml and 10 ng/ml tetracycline for 18 h before calcium fluorescence experimentation.
(§2) Cells were seeded into black-walled, clear-bottom, 96-well plates at a density of 80000 cell/well, in RPMI (without Phenol Red, without L-glutamine; Gibco LifeTechnologies, CA) supplemented with 10% dialyzed FBS. Following 18-h incubation with tetracycline, the cells were loaded with […] Ca^2+—sensitive fluorescent dye Fluo-4/AM (Molecular Probes) in Hanks' balanced saline solution (HBSS, Gibco LifeTechnologies, CA) with 20 mM Hepes (Sigma) and 2.5 mM probenecid (Sigma), for 1 h at 37° C. The cells were washed three times with HBSS to remove extracellular dye. Fluorescence signals were measured by using the fluorescence microplate reader Flexstation III (Molecular Devices) at sampling intervals of 1.5 s for 60 s.
(§3) The antagonist potency was determined using the EC80 of the quisqualate used as agonist and the potentiation of mGlu5 activation was determined using the EC20 of the agonist (quisqualate or glutamate). The compounds were applied 10 minutes before the application of the agonist. For binding and calcium assay studies, the compounds were dissolved in DMSO or demineralized water according to their solubility. All the reported doses were those of the corresponding salts or bases.

[2] = biological target: T1, human mGlu5 receptor (CHO T-REx h-mGluR5 cells); assay: Radioligand binding assay at cloned mGluR5 ([3H]MPEP displacement); settings: 4 nM [3H]MPEP, read-out: h.c. mglu R5 IC50
Excerpt: as §1
Affinity at transmembrane glutamate metabotropic mGluR5 receptor subtypes was evaluated according to the methods of Anderson (Anderson et al., J Pharmacol. Exp. Ther., (2002), Vol. 303(3), pp. 1044-51), with some modifications. Cloned mGluR5 was obtained by re-suspending CHO T-REx h-mGluR5 cells (50 μg/well) in 20 mM HEPES, 2 mM MgCl2, 2 mM CaCl2, pH 7.4, that then were incubated in a final volume of 1 ml for 60 min at 25° C. with 4 nM [^3H]MPEP in the absence or presence of competing drugs. Non-specific binding was determined in the presence of […] MPEP. The incubation was stopped by addition of cold Tris buffer pH 7.4 and rapid filtration through 0.2% polyethyleneimine pretreated Filtermat 1204-401 (Perkin Elmer) filters. The filters were then washed with cold buffer and the radioactivity retained on the filters was counted by liquid scintillation spectrometry (Betaplate 1204 BS-Wallac).
as §3
The inhibition curves of the tested compounds at native and cloned mGluR1 and mGluR5 subtypes were determined by nonlinear regression analysis using software Prism 4.0 (Graphpad, San Diego, Calif.). The IC50 values and pseudo-Hill slope coefficients were estimated by the program. The values for the inhibition constant, Ki, were calculated according to the equation Ki=IC50/(1+[L]/Kd), where [L] is the concentration of radioligand and Kd is the equilibrium dissociation constant of the radioligand-receptor complex (Cheng et al., Biochem. Pharmacol. (1973), Vol. 22, pp. 3099-3108).

[3] = biological target: T1, human mGlu5 receptor (CHO T-REx h-mGluR5 cells); assay: Calcium fluorescence measurement, potentiation of mGlu5 activation at EC20 of quisqualate; assay type: cell-based; settings: for Fold Shift 1 microM Quisq. / Fold Inc. Quisq.: agonist quisqualate; for EC50: potentiation, agonist quisqualate at EC20, read-out: EC50 nM Quisq.
Excerpt: as §1, §2, §3

T1 sequence (P41594 21-1212): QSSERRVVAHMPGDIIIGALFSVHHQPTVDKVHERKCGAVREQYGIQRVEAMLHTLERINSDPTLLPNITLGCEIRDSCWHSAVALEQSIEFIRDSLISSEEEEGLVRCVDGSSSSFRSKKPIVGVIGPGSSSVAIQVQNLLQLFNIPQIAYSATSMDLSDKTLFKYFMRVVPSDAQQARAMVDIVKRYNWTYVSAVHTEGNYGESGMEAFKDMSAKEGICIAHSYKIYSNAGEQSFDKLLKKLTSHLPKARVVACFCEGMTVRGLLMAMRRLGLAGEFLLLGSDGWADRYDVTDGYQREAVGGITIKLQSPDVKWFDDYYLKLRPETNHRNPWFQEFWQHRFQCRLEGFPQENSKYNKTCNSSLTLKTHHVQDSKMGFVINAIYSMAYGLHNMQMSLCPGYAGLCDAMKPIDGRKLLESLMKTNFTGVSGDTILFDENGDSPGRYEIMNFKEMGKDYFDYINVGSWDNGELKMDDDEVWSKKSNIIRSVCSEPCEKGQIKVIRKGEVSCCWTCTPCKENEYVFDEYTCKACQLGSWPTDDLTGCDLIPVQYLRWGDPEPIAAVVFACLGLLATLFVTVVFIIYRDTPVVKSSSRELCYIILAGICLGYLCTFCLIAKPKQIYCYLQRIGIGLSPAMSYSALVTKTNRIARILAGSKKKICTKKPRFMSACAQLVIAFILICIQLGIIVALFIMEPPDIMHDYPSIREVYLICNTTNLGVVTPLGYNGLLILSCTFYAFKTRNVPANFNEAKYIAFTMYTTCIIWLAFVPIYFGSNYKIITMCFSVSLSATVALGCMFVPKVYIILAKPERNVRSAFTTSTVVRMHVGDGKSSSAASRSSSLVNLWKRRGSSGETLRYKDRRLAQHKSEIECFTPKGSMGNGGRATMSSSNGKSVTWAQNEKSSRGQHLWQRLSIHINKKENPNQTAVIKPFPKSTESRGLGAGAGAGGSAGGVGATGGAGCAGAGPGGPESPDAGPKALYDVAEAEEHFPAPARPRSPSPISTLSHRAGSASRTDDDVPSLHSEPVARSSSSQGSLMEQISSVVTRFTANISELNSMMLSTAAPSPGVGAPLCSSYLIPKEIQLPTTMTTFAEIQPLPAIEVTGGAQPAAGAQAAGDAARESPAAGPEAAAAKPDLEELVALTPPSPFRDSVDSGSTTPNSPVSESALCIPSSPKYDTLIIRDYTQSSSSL

IC50 [1] | IC50 [2] | Fold Shift 1 microM Quisq. [3] | Fold Inc. Quisq. [3] | EC50 [3] | SMILES
> 1000 nM | 3.65 nM | 2.2 fold | 3.5 fold | 141 nM | Cc1cccc(C#CC2=NOC3C2CCN3C(=O)OC(C)(C)C)c1 (centres unmarked) [Example 10, tert-butyl 3-[2-(m-tolyl)ethynyl]-3a,4,5,6a-tetrahydropyrrolo[3,2-d]isoxazole-6-carboxylate]
> 1000 nM | 3.87 nM | 1.8 fold | 1.96 fold | 37.1 nM | CC(C)(C)OC(=O)N1CCC2C(C#Cc3cccc(Cl)c3)=NOC21 (centres unmarked) [Example 1, tert-butyl 3-[2-(3-chlorophenyl)ethynyl]-3a,4,5,6a-tetrahydropyrrolo[3,2-d]isoxazole-6-carboxylate]
> 1000 nM | 29.6 nM |  | 0 fold |  | O=C(c1ccco1)N1CCC2C(C#Cc3cccc(Cl)c3)=NOC21 (centres unmarked) [Example 2, [3-[2-(3-chlorophenyl)ethynyl]-3a,4,5,6a-tetrahydropyrrolo[3,2-d]isoxazol-6-yl]-(2-furyl)methanone]
54.8 nM | 81.5 nM |  |  |  | CCOC(=O)N1CCC2C(C#Cc3cccc(Cl)c3)=NOC21 (centres unmarked) [Example 3, ethyl 3-[2-(3-chlorophenyl)ethynyl]-3a,4,5,6a-tetrahydropyrrolo[3,2-d]isoxazole-6-carboxylate]
> 1000 nM | 15 nM |  |  |  | O=C(N1CCCC1)N1CCC2C(C#Cc3cccc(Cl)c3)=NOC21 (centres unmarked) [Example 9, [3-[2-(3-chlorophenyl)ethynyl]-3a,4,5,6a-tetrahydropyrrolo[3,2-d]isoxazol-6-yl]-pyrrolidin-1-yl-methanone]
> 1000 nM | 14.8 nM |  |  |  | CCN(CC)C(=O)N1CCC2C(C#Cc3cccc(C)c3)=NOC21 (centres unmarked) [Example 14, N,N-diethyl-3-[2-(m-tolyl)ethynyl]-3a,4,5,6a-tetrahydropyrrolo[3,2-d]isoxazole-6-carboxamide]
212 nM | 59.2 nM |  |  |  | CN(C)C(=O)N1CCC2C(C#Cc3cccc(Cl)c3)=NOC21 (centres unmarked) [Example 7, 3-[2-(3-chlorophenyl)ethynyl]-N,N-dimethyl-3a,4,5,6a-tetrahydropyrrolo[3,2-d]isoxazole-6-carboxamide]
> 1000 nM | 50 nM | 3.2 fold | 2.06 fold | 131 nM | Cc1cccc(C#CC2=NOC3C2CCN3C(=O)N2CCOCC2)c1 (centres unmarked) [Example 13, morpholino-[3-[2-(m-tolyl)ethynyl]-3a,4,5,6a-tetrahydropyrrolo[3,2-d]isoxazol-6-yl]methanone]
> 1000 nM | 17 nM |  |  |  | Cc1cccc(C#CC2=NOC3C2CCN3C(=O)N2CCCC2)c1 (centres unmarked) [Example 11, [3-[2-(m-tolyl)ethynyl]-3a,4,5,6a-tetrahydropyrrolo[3,2-d]isoxazol-6-yl]-pyrrolidin-1-yl-methanone]
21.1 nM | 22 nM |  |  |  | CON(C)C(=O)N1CCC2C(C#Cc3cccc(C)c3)=NOC21 (centres unmarked) [Example 15, N-methoxy-N-methyl-3-[2-(m-tolyl)ethynyl]-3a,4,5,6a-tetrahydropyrrolo[3,2-d]isoxazole-6-carboxamide]
> 1000 nM | 12.5 nM |  |  |  | O=C(N1CCCCC1)N1CCC2C(C#Cc3cccc(Cl)c3)=NOC21 (centres unmarked) [Example 8, [3-[2-(3-chlorophenyl)ethynyl]-3a,4,5,6a-tetrahydropyrrolo[3,2-d]isoxazol-6-yl]-(1-piperidyl)methanone]
